According to patent US9388215B2, “Compositions and methods of using islet neogenesis peptides and analogs thereof” (SHENZHEN HIGHTIDE BIOPHARMACEUTICAL, LTD., priority 2013, dated 2016):

Assays:
[1] = tested on: ARIP cells; assay: ARIP cell proliferation (BrdU ELISA / CellTiter-Glo); assay type: cell-based, rat; settings: 100 nM peptide; compared to INGAP scrambled peptide and INGAP-PP; FIG. 1
Procedure: To measure cell proliferation, a bromodeoxyuridine (BrdU) ELISA assay was performed. Briefly, ARIP cells (ATCC (American Type Culture Collection), Manassas Va. USA), a rat pancreatic ductal cell line, were cultured in F-12K medium (Gibco-BRL, Gaithersburg, Md., USA) containing 10% fetal bovine serum (FBS; HyClone, Thermo Fisher Scientific Inc.; Waltham Mass. USA), 100 μg/ml streptomycin and 100 μg/ml penicillin in a cell incubator. ARIP cells were seeded into 96-well culture plates at 8000 or 0 (as blank control) cells/well in a volume of 50 μl cell culture medium and incubated overnight for the following experiments. On the second day, after replacing the medium with medium without serum, 50 μl serum-free cell culture medium containing test peptides at a series concentrations (final concentrations were 10 μM, 5 μM, 1 μM, 500 nM, 100 nM, 50 nM, 10 nM and 1 nM) were added to seeded cells. Medium without compound was added to negative control and background control wells. […] The absorbance at 450 nm (reference wavelength 690 nm) on an EnVision™ plate reader (Perkin Elmer, Boston Mass.) within 5 min after adding the stop solution was measured.
To test for cell viability, a CellTiter-Glo™ (CTG) assay (Promega, Madison Wis.) was performed. […] Luminescence signal was quantified on an EnVision™ plate reader after a 10 minute incubation at room temperature.

[2] = tested on: STZ induced diabetic mice; assay: Efficacy in streptozotocin (STZ) induced diabetic mice model; assay type: in vivo, mouse
Procedure: After acclimatization in the animal facility for one week, 6-8 weeks old C57BL/6J mice were administered low dose STZ at 40 mg/kg in citrate buffer for 5 consecutive days to establish a T1D animal model. Mice with blood glucose greater than 16.7 mmol/L at 5 days post last STZ injection were included in the study. These mice were then treated with INGAP-PP (Peptide 1) or Peptide 7 at the doses of 5 mg/kg (2.5 mg/kg, bid (twice a day)) or 25 mg/kg (12.5 mg/kg, bid) for 20 days before sacrifices. Two additional groups of diabetic mice were administered either saline or a peptide (Peptide 3) composed of a scrambled sequence of amino acids from Peptide 1 as control groups. Blood glucose and insulin levels were measured, and 20 days post the last dosing of test agents, an oral glucose tolerance test (OGTT) was performed in 6 hour fasted animals to determine the effect of Peptide 1 and Peptide 7. Blood samples obtained from the tail cut for glucose determination were detected with an ACCU-CHEK™ glucometer (Roche, ACCU-CHEK® Active), and insulin levels were determined with Rat/Mouse Insulin Elisa kit (Millipore, Billerica, Mass. USA). For the OGTT, after the measurement of the basal glucose concentration (T=−30 min), mice received an oral glucose challenge at 2 g/kg and glucose values were determined by glucometer at 0, 15, 30, 60, 90 and 120 min.

[3] = Peptide stability in culture medium (F-12K, 37° C., HPLC); assay type: physicochemical; settings: F-12K medium, 0.25 mg/mL, 0-72 hours, FIG. 2, FIG. 11
Procedure: To determine the stability of peptides in culture medium, a certain amount of selected peptides was accurately weighed and dissolved in distilled water to 5 mg/mL as a stock solution. The stock solution was diluted to 0.25 mg/mL with F-12K medium (Gibco-BRL, Gaithersburg, Md., USA) as working solution. A volume of 100 μL of each working solution was transferred into individual sample vials. The sample vials were incubated in a 37° C. incubator for 0, 24, 48 and 72 hours before being analyzed and quantitated by HPLC. […]

[4] = tested on: normal C57BL/6J mice; assay: Induction of small β-cell clusters in normal C57BL/6J mice (islet size distribution); assay type: in vivo, mouse
Procedure: After a 1-week acclimation, C57BL/6J female mice were randomly divided into 4 groups. The two control groups received either 10 mL/kg sterile normal saline (n=4) or scrambled peptide (Peptide 3, 25 mg/kg) (n=5) via subcutaneous injection for 10 days. The other two groups received INGAP-PP (Peptide 1) or INGAP-PP analog Peptide 7 at a dose of 25 mg/kg per day respectively (n=7 per group) for the same period. Body weight and 6 hour fasting blood glucose were measured before treatment and after the last dosing of treatment. Plasma and pancreatic insulin were also measured at the end of the study. On day 11, the pancreas was removed from each animal, cleared of fat and lymph nodes, weighed, and fixed in 10% neutral buffered formalin (NBF) for no longer than 24 hours before processing for morphometric analysis.
Immunohistochemistry analysis was used to determine pancreatic islet size distribution.

H-IGLHDPSHGTLPAGS-OH [Peptide 7, H-IGLHDPSHGTLPAGS-OH]
percentage increase in cell number (ARIP cell proliferation) [1]: significantly higher percentage increase in cell number | effect on body weight or pancreas weight ([2]; 5 mg/kg or 25 mg/kg for 20 days): did not affect body weight or pancreas weight | plasma insulin levels vs saline controls ([2]; 25 mg/kg dose group, end of the 20-day period, FIG. 6B): significantly different from saline controls and almost restored to the level of the naive group | glucose tolerance (OGTT, AUC of glucose) ([2]; FIG. 6C): improved glucose tolerance | blood glucose levels vs saline control group ([2]; day 21 of treatment, FIG. 6A): Significant differences in blood glucose levels | stability in culture medium [3]: significantly more stable than INGAP-PP peptide in culture medium | number of islets, islet size (Log [μm^2]) ranging from 2.1 to 0.7 ([4]; normal female C57BL/6J mice, 25 mg/kg per day, 10 days, versus naive/control group, FIG. 7): numbers increased significantly | effect on body weight, blood glucose, plasma insulin, pancreas insulin, pancreas weight ([4]; normal mice, 25 mg/kg per day sc for 10 days, compared to saline group): did not affect body weight, blood glucose, plasma insulin, pancreas insulin, or pancreas weight
